Source: US8318674B2, “Local treatment of bone defects” (Kuros Biosurgery AG, priority 2005, dated 2012)

Tests used:
[1] = Stability of PTH or TGPTH in buffer (spiked samples, direct ELISA); type: physicochemical; conditions: 0.5 μg/mL, 37° C., distilled water, phosphate buffer saline, tris-buffer saline
Experimental: For the first release assay, a fibrin matrix of 50 μl with 0.1 mg PTH or TGPTH per ml fibrin matrix was incubated at 37° C. in 10 ml buffer. Therefore, the concentration of PTH or TGPTH in the buffer in case of a total release would be 0.5 μg PTH or TGPTH/mL fibrin matrix. In order to compare the stability of PTH or TGPTH during the assay, samples of PTH or TGPTH were diluted directly in the buffer to a concentration of 0.5 μg PTH or TGPTH/mL fibrin matrix. Different buffers were tested: distilled water, phosphate buffer saline, tris-buffer saline.
Aliquots were taken at days 0, 1, 2, 4 and 6 and analysed by direct ELISA. […] Therefore, no conclusion could be made on the release data. The PTH stability was certainly affected by its low concentration and the buffers that were not optimal.
The release experiment was repeated by using a stabilizing buffer containing 50 mM mannitol in a 10 mM sodium acetate buffer. In addition, the buffer was exchanged every 2 days in order to prevent any degradation of peptide. […] The concentration of PTH or TGPTH in the buffer in case of a total release would be 100 μg/mL fibrin matrix (200 times more than before). […] Samples were collected every 2 to 4 days (with a change of buffer) during 2 weeks and analysed by direct ELISA. […]

[2] = target: T1, parathyroid hormone receptor (Homo sapiens, UniProt Q03431); assay: Reporter gene assay for bioactivity of PTH fusion peptides; type: cell-based; conditions: luciferase reporter linked to PTH receptor promoter; equal amounts; compared to international 84 amino acid standard
T1 construct: endogenous in cells; transfected only with a luciferase reporter plasmid driven by the PTH receptor promoter
T1 sequence (Q03431 27-593): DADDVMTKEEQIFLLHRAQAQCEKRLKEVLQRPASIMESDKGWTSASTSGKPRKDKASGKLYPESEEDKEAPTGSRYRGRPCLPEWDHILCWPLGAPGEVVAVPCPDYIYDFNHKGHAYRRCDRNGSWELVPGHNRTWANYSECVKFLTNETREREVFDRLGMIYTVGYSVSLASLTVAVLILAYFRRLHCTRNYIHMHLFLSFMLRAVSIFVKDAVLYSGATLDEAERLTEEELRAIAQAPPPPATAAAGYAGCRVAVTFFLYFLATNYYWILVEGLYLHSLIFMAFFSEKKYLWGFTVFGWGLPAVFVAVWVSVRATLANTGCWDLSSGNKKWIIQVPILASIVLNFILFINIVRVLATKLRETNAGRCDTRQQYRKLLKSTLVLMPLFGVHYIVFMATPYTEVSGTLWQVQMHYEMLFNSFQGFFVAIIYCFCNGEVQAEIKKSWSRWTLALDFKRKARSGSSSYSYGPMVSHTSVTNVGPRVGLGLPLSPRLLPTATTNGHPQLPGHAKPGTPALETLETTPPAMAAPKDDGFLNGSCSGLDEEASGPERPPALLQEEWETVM
Experimental: Cells transfected with a reporter gene linked to a promoter for a PTH receptor were treated with equal amounts of either PTH1-34, TG-pl-PTH1-34 (described hereinafter) or the international 84 amino acid standard. The inhibition of expression of the luciferase reporter gene was measured and compared to transfected cells that were not exposed to PTH in solution (control).
To study the bioactivity of the PTH fusion peptides, a reporter gene assay was established. In this assay, a plasmid that contains luciferase reporter gene which is linked to the promoter for the parathyroid hormone receptor is transfected into cells. Then, if the cell is exposed to PTH and the PTH subsequently binds to its receptor on the cell, a signal cascade, directed through elevated cAMP levels, is initiated. Through a natural feedback regulation, this then leads to a reduction of PTH receptor levels. As the reduction is directed through the promoter, it also then leads to a decrease in production of the linked reporter gene. Using this assay, the activity of both native PTH1-34 as well as TG-pl-PTH1-34 were studied and compared to an international standard.

stability in buffer [1] | Molecule | level of activity (reduction in reporter gene expression) [2]
≤ 2 days | CC[C@H](C)[C@H](NC(=O)[C@H](CCC(=O)O)NC(=O)[C@H](CO)NC(=O)[C@@H](NC(=O)[C@@H](N)CO)C(C)C)C(=O)N[C@@H](CCC(N)=O)C(=O)N[C@@H](CC(C)C)C(=O)N[C@@H](CCSC)C(=O)N[C@@H](Cc1cnc[nH]1)C(=O)N[C@@H](CC(N)=O)C(=O)N[C@@H](CC(C)C)C(=O)NCC(=O)N[C@@H](CCCCN)C(=O)N[C@@H](Cc1cnc[nH]1)C(=O)N[C@@H](CC(C)C)C(=O)N[C@@H](CC(N)=O)C(=O)N[C@@H](CO)C(=O)N[C@@H](CCSC)C(=O)N[C@@H](CCC(=O)O)C(=O)N[C@@H](CCCN=C(N)N)C(=O)N[C@H](C(=O)N[C@@H](CCC(=O)O)C(=O)N[C@@H](Cc1c[nH]c2ccccc12)C(=O)N[C@@H](CC(C)C)C(=O)N[C@@H](CCCN=C(N)N)C(=O)N[C@@H](CCCCN)C(=O)N[C@@H](CCCCN)C(=O)N[C@@H](CC(C)C)C(=O)N[C@@H](CCC(N)=O)C(=O)N[C@@H](CC(=O)O)C(=O)N[C@H](C(=O)N[C@@H](Cc1cnc[nH]1)C(=O)N[C@@H](CC(N)=O)C(=O)N[C@@H](Cc1ccccc1)C(=O)O)C(C)C)C(C)C [PTH1-34] | –
– | NQEQVSPLYKNRSVSEIQLMHNLGKHLNSMERVEWLRKKLQDVHNF [TG-pl-PTH1-34] | the same as for the international standard
